Target: T1, α7 nAChR (Rattus norvegicus, UniProt Q05941)
T1 construct: brains (whole brain minus cerebellum) are dissected quickly, weighed and homogenized; from tissue; host or cells: rat brain (whole brain minus cerebellum) membranes
Assay: [3H]-MLA competition binding assay in rat brain membranes
Details: inhibition of [3H]-MLA binding, rat brain homogenate (whole brain minus cerebellum), Cheng-Prusoff
Experimental: Materials and Methods for Identifying Binding Constants:
Membrane Preparation. Male Sprague-Dawley rats (300-350 g) are sacrificed by decapitation and the brains (whole brain minus cerebellum) are dissected quickly, weighed and homogenized in 9 volumes/g wet weight of ice-cold 0.32 M sucrose using a rotating pestle on setting 50 (10 up and down strokes). The homogenate is centrifuged at 1,000× g for 10 minutes at 4° C. The supernatant is collected and centrifuged at 20,000× g for 20 minutes at 4° C. The resulting pellet is resuspended to a protein concentration of 1-8 mg/mL. Aliquots of 5 mL homogenate are frozen at −80° C. until needed for the assay. On the day of the assay, aliquots are thawed at room temperature and diluted with Kreb's—20 mM Hepes buffer pH 7.0 (at room temperature) containing 4.16 mM NaHCO3, 0.44 mM KH2PO4, 127 MM NaCl, 5.36 mM KCl, 1.26 mM CaCl2, and 0.98 mM MgCl2, so that 25-150 μg protein are added per test tube. Protein concentration is determined by the Bradford method (Bradford, M. M., Anal. Biochem., 72, 248-254, 1976) using bovine serum albumin as the standard.
Binding Assay. For saturation studies, 0.4 mL homogenate are added to test tubes containing buffer and various concentrations of radioligand, and are incubated in a final volume of 0.5 mL for 1 hour at 25° C. Nonspecific binding was determined in tissues incubated in parallel in the presence of 1 μM MLA, added before the radioligand. In competition studies, drugs are added in increasing concentrations to the test tubes before addition of approximately 3.0 to 4.0 nM [^3H]-MLA. The incubations are terminated by rapid vacuum filtration through Whatman GF/B glass filter paper mounted on a 48 well Brandel cell harvester. Filters are pre-soaked in 50 mM Tris HCl pH 7.0-0.05% polyethylenimine. The filters are rapidly washed two times with 5 mL aliquots of cold 0.9% saline and then counted for radioactivity by liquid scintillation spectrometry.
Data Analysis. In competition binding studies, the inhibition constant (Ki) was calculated from the concentration dependent inhibition of [^3H]-MLA binding obtained from non-linear regression fitting program according to the Cheng-Prusoff equation (Cheng, Y. C. and Prussoff, W. H., Biochem. Pharmacol., 22, p. 3099-3108, 1973). Hill coefficients were obtained using non-linear regression (GraphPad Prism sigmoidal dose-response with variable slope).

T1 sequence (Q05941 23-502): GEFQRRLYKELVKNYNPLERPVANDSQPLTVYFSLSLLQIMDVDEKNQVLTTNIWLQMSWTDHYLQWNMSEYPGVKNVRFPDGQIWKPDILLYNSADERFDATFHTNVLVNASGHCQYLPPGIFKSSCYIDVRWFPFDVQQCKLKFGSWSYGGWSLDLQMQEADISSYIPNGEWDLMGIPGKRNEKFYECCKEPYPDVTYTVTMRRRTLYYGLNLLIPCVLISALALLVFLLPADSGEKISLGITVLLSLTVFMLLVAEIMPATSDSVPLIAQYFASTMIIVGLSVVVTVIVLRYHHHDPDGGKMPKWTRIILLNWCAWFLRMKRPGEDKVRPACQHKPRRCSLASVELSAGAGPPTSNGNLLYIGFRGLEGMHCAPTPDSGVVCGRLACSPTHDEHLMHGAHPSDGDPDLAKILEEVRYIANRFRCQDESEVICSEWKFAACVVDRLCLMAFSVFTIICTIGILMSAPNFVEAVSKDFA

Row | SMILES | Ki
1 | O=C(NC1CC2CCN(C2)C1)c1ccc(Cl)cc1 (racemic) [Example 3 (racemic), Exo-N-[1-azabicyclo[3.2.1]oct-3-yl]-4-chlorobenzamide 4-methylbenzenesulfonate] | 115 nM
2 | O=C(N[C@H]1CN2CCC1CC2)c1ccc(Cl)cc1 [Example 1(a)] | 26 nM
3 | C[C@H]1[C@H](NC(=O)c2ccc(Cl)cc2)C2CCN1CC2 [Example 1(b)(i), 4-chloro-N-[(2S,3R)-2-methyl-1-azabicyclo[2.2.2]oct-3-yl]benzamide 4-methylbenzenesulfonate] | 65 to 140 nM
4 | O=C(N[C@@H]1C[C@H]2CCN(C2)C1)c1ccc(Cl)cc1 [Example 3 (3R, 5R), (3R,5R)-N-(1-azabicyclo[3.2.1]oct-3-yl)-4-chlorobenzamide 4-methylbenzenesulfonate] | 18 nM
5 | O=C(N[C@H]1C[C@@H]2CCN(C2)C1)c1ccc(Cl)cc1 [Example 3 (3S, 5S), (3S,5S)-N-(1-azabicyclo[3.2.1]oct-3-yl)-4-chlorobenzamide 4-methylbenzenesulfonate] | > 1000 nM

Source: US6869946B2, “Substituted azabicyclic moieties for the treatment of disease” (Pfizer Inc, priority 2001, dated 2005)
